IC50 data for 16 compounds are collected here from US12421252B2, “Spiro (isobenzofuranazetidine) compounds for the treatment of autoimmune disease” (Hoffmann-La Roche Inc., priority 2020, dated 2025).

The structures appear in SMILES notation.

This experiment concerns the target T1, hTLR9 (Homo sapiens, UniProt Q9NR96).
T1 sequence (Q9NR96 26-1032): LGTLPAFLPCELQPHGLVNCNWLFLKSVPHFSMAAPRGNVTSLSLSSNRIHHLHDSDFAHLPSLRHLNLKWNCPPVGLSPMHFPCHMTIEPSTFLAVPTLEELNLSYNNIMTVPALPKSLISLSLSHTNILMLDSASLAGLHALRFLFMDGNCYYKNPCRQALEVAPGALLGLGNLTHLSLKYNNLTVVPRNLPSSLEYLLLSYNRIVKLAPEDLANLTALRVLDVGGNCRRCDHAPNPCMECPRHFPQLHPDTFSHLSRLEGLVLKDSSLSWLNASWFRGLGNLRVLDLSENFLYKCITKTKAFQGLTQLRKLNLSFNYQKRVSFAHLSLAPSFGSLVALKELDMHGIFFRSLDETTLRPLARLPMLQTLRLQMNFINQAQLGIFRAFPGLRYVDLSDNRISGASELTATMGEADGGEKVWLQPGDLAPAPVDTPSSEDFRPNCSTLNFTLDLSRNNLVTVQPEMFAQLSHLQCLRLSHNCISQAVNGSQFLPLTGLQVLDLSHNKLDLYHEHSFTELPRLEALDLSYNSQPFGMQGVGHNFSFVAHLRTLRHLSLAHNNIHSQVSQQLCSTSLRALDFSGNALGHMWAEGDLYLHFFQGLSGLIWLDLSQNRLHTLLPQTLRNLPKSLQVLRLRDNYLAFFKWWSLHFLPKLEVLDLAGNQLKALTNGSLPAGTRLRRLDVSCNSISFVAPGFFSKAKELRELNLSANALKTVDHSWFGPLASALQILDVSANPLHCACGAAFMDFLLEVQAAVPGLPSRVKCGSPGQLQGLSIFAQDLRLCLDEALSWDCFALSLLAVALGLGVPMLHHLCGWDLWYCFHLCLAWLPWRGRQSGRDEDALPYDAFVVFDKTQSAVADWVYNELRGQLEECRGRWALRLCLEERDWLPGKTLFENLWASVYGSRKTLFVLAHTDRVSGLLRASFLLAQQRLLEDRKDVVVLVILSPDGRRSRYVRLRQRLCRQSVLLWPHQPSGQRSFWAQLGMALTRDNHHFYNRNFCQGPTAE
Put plainly: HEK293-Blue-hTLR-9 cells assay. In kind it is cell-based. To be noted: HEK293-Blue-hTLR9 cells, ODN2006 stimulation, 20 hrs, SEAP reporter; read-out: HEK/hTLR9 IC50. From the text:
HEK293-Blue-hTLR-9 cells assay: A stable HEK293-Blue-hTLR-9 cell line was purchased from InvivoGen (Cat. #: hkb-htlr9, San Diego, California, USA). These cells were originally designed for studying the stimulation of human TLR9 by monitoring the activation of NF-κB. A SEAP (secreted embryonic alkaline phosphatase) reporter gene was placed under the control of the IFN-β minimal promoter fused to five NF-κB and AP-1-binding sites. The SEAP was induced by activating NF-κB and AP-1 via stimulating HEK-Blue hTLR9 cells with TLR9 ligands. Therefore the reporter expression was declined by TLR9 antagonist under the stimulation of a ligand, such as ODN2006 (Cat. #: tlrl-2006-1, Invivogen, San Diego, California, USA), for incubation of 20 hrs. The cell culture supernatant SEAP reporter activity was determined using QUANTI-Blue™ kit (Cat. #: rep-qb1, Invivogen, San Diego, California, USA) at a wavelength of 640 nm, a detection medium that turns purple or blue in the presence of alkaline phosphatase.
HEK293-Blue-hTLR9 cells were incubated at a density of 250,000˜450,000 cells/mL in a volume of 170 μL in a 96-well plate in Dulbecco's Modified Eagle's medium (DMEM) containing 4.5 g/L glucose, 50 U/mL penicillin, […], 2 mM L-glutamine, 10% (v/v) heat-inactivated fetal bovine serum with addition of 20 μL test compound in a serial dilution in the presence of final DMSO at 1% and 10 μL of 20 uM ODN2006 in above DMEM, perform incubation under 37° C. in a CO2 incubator for 20 hrs. Then 20 μL of the supernatant from each well was incubated with 180 μL Quanti-blue substrate solution at 37° C. for 2 h and the absorbance was read at 620-655 nm using a spectrophotometer. The signaling pathway that TLR9 activation leads to downstream NF-κB activation has been widely accepted, and therefore similar reporter assay was modified for evaluating TLR9 antagonist.
Turning to `C[C@@H]1CN(c2ccc(C#N)n3ncc(F)c23)C[C@H](CN2CC3(C2)OCc2cc(N4CC5(CNC5)C4)ccc23)O1` [Example 12, 4-[(2S,6R)-2-[[6-(2,6-diazaspiro[3.3]heptan-2-yl)spiro[1H-isobenzofuran-3,3′-azetidine]-1′-yl]methyl]-6-methyl-morpholin-4-yl]-3-fluoro-pyrazolo[1,5-a]pyridine-7-carbonitrile], the IC50 stood at 103 nM.
Consider `C[C@@H]1CN(c2ccc(C#N)n3ncc(F)c23)C[C@H](CN2CC3(C2)OCc2cc(N4CC5(CN(C)C5)C4)cnc23)O1` [Example 22, 3-fluoro-4-[(2R,6S)-2-methyl-6-[[3-(6-methyl-2,6-diazaspiro[3.3]heptan-2-yl)spiro[5H-furo[3,4-b]pyridine-7,3′-azetidine]-1′-yl]methyl]morpholin-4-yl]pyrazolo[1,5-a]pyridine-7-carbonitrile], for which the IC50 came to 57 nM.
Next, `C[C@@H]1CN(c2ccc(C#N)n3ncc(F)c23)C[C@H](CN2CC3(C2)OCc2cc(N4CC5(CN(C)C5)C4)ccc23)O1` [Example 2, 3-fluoro-4-[(2R,6S)-2-methyl-6-[[6-(6-methyl-2,6-diazaspiro[3.3]heptan-2-yl)spiro[1H-isobenzofuran-3,3′-azetidine]-1′-yl]methyl]morpholin-4-yl]pyrazolo[1,5-a]pyridine-7-carbonitrile]: 45 nM.
As for `C[C@@H]1CN(c2ccc(C#N)n3ncc(F)c23)C[C@H](CN2CC3(C2)OCc2cc(N4CC(N)C4)ccc23)O1` [Example 9, 4-[(2S,6R)-2-[[6-(3-aminoazetidin-1-yl)spiro[1H-isobenzofuran-3,3′-azetidine]-1′-yl]methyl]-6-methyl-morpholin-4-yl]-3-fluoro-pyrazolo[1,5-a]pyridine-7-carbonitrile], the IC50 is 84 nM.
To `[2H]c1ccc2c(N3C[C@H](CN4CC5(C4)OCc4cc(N6C[C@H]7NCCO[C@@H]7C6)ncc45)O[C@H](C)C3)ccc(C#N)c2n1` [Example 28, 5-[(2S,6R)-2-[[6-[(4aR,7aR)-3,4,4a,5,7,7a-hexahydro-2H-pyrrolo[3,4-b][1,4]oxazin-6-yl]spiro[1H-furo[3,4-c]pyridine-3,3′-azetidine]-1′-yl]methyl]-6-methyl-morpholin-4-yl]-2-deuterio-quinoline-8-carbonitrile] belongs 160 nM.
Take `C[C@@H]1CN(c2ccc(C#N)n3nccc23)C[C@H](CN2CC3(C2)OCc2cc(N4CC(C)(N)C4)ncc23)O1` [Example 25, 4-[(2S,6R)-2-[[6-(3-amino-3-methyl-azetidin-1-yl)spiro[1H-furo[3,4-c]pyridine-3,3′-azetidine]-1′-yl]methyl]-6-methyl-morpholin-4-yl]pyrazolo[1,5-a]pyridine-7-carbonitrile]: the IC50 came out at 70 nM.
Next, `C[C@@H]1CN(c2ccc(C#N)n3ncc(F)c23)C[C@H](CN2CC3(C2)OCc2cc(N4CCNCC4)ccc23)O1` [Example 6, 3-fluoro-4-[(2R,6S)-2-methyl-6-[(6-piperazin-1-ylspiro[1H-isobenzofuran-3,3′-azetidine]-1′-yl)methyl]morpholin-4-yl]pyrazolo[1,5-a]pyridine-7-carbonitrile]: 90 nM; `C[C@@H]1CN(c2ccc(C#N)n3nccc23)C[C@H](CN2CC3(C2)OCc2cc(N4CC(C)(N)C4)cnc23)O1` [Example 26, 4-[(2S,6R)-2-[[3-(3-amino-3-methyl-azetidin-1-yl)spiro[5H-furo[3,4-b]pyridine-7,3′-azetidine]-1′-yl]methyl]-6-methyl-morpholin-4-yl]pyrazolo[1,5-a]pyridine-7-carbonitrile]: 80 nM.
Next, `C[C@@H]1CN(c2ccc(C#N)n3ncc(F)c23)C[C@H](CN2CC3(C2)OCc2cc(N[C@H]4CNC[C@H]4F)ccc23)O1` [Example 3, 3-fluoro-4-[(2S,6R)-2-[[6-[[(3S,4R)-4-fluoropyrrolidin-3-yl]amino]spiro[1H-isobenzofuran-3,3′-azetidine]-1′-yl]methyl]-6-methyl-morpholin-4-yl]pyrazolo[1,5-a]pyridine-7-carbonitrile]: 47 nM; `C[C@@H]1CN(c2ccc(C#N)n3ncc(F)c23)C[C@H](CN2CC3(C2)OCc2cc(N4CC5(CNCCO5)C4)ccc23)O1` [Example 4, 3-fluoro-4-[(2R,6S)-2-methyl-6-[[6-(5-oxa-2,8-diazaspiro[3.5]nonan-2-yl)spiro[1H-isobenzofuran-3,3′-azetidine]-1′-yl]methyl]morpholin-4-yl]pyrazolo[1,5-a]pyridine-7-carbonitrile]: 96 nM.
Next, `[2H]c1ccc2c(N3C[C@H](CN4CC5(C4)OCc4cc(N6C[C@@H](N)[C@H](OC)C6)cnc45)O[C@H](C)C3)ccc(C#N)c2n1` [Example 31, 5-[(2S,6R)-2-[[3-[(3R,4R)-3-amino-4-methoxy-pyrrolidin-1-yl]spiro[5H-furo[3,4-b]pyridine-7,3′-azetidine]-1′-yl]methyl]-6-methyl-morpholin-4-yl]-2-deuterio-quinoline-8-carbonitrile]: 79 nM; `[2H]c1ccc2c(N3C[C@H](CN4CC5(C4)OCc4cc(N6CCNCC6)ccc45)O[C@H](C)C3)ccc(C#N)c2n1` [Example 18, 2-deuterio-5-[(2R,6S)-2-methyl-6-[(6-piperazin-1-ylspiro[1H-isobenzofuran-3,3′-azetidine]-1′-yl)methyl]morpholin-4-yl]quinoline-8-carbonitrile]: 32 nM; `C[C@@H]1CN(c2cc(=O)n(C)c3ncccc23)C[C@H](CN2CC3(C2)OCc2cc(N4CC(N)C4)ccc23)O1` [Example 13, 4-[(2S,6R)-2-[[6-(3-aminoazetidin-1-yl)spiro[1H-isobenzofuran-3,3′-azetidine]-1′-yl]methyl]-6-methyl-morpholin-4-yl]-1-methyl-1,8-naphthyridin-2-one]: 68 nM.
For `C[C@@H]1CN(c2ccc(C#N)n3ncc(F)c23)C[C@H](CN2CC3(C2)OCc2cc(N4CC(C)(N)C4)cnc23)O1` [Example 33, 4-[(2S,6R)-2-[[3-(3-amino-3-methyl-azetidin-1-yl)spiro[5H-furo[3,4-b]pyridine-7,3′-azetidine]-1′-yl]methyl]-6-methyl-morpholin-4-yl]-3-fluoro-pyrazolo[1,5-a]pyridine-7-carbonitrile], the IC50 worked out at 227 nM.
To `[2H]c1ccc2c(N3C[C@H](CN4CC5(C4)OCc4cc(N6CC(N)C6)ncc45)O[C@H](C)C3)ccc(C#N)c2n1` [Example 32, 5-[(2S,6R)-2-[[6-(3-aminoazetidin-1-yl)spiro[1H-furo[3,4-c]pyridine-3,3′-azetidine]-1′-yl]methyl]-6-methyl-morpholin-4-yl]-2-deuterio-quinoline-8-carbonitrile] belongs 244 nM; to `C[C@@H]1CN(c2ccc(C#N)n3ncc(F)c23)C[C@H](CN2CC3(C2)OCc2cc(N4C[C@H](N)[C@@H](O)C4)ccc23)O1` [Example 10, 4-[(2S,6R)-2-[[6-[(3S,4S)-3-amino-4-hydroxy-pyrrolidin-1-yl]spiro[1H-isobenzofuran-3,3′-azetidine]-1′-yl]methyl]-6-methyl-morpholin-4-yl]-3-fluoro-pyrazolo[1,5-a]pyridine-7-carbonitrile], 61 nM.
